Laboratory results from US20070167492A1, “Molluscicidal agents” (priority 2003, published 2007).

Columns and labels:
[1] = system: Deroceras reticulatum (grey field slug); assay: Example 1: pot test, treated winter wheat seed with 5 adult slugs per pot, 14 days; type: in vivo
How it was run: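 Fludioxonil-disinfected winter wheat seed (Kampa, 40 per pot) sown on quartz sand over potting soil with 5 adult slugs per pot; ±15° C., ±90% RH, 12 h light/12 h dark, 4 replicates. Damaged seeds, plants, dead slugs and fecal pellets counted up to day 14; F-tests and Student-tests.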

[2] = system: Deroceras reticulatum (grey field slug); assay: Example 2: pot re-test, treated winter wheat seed with 5 adult slugs per pot, 7 days; type: in vivo
How it was run: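 Pots sown with 40 treated winter wheat seeds on quartz sand over potting soil, each given 5 adult grey field slugs, kept at 18-19° C, ~95% RH, ~18 h light, no overhead irrigation; 4 replicates. Damaged seeds, intact plants, dead slugs and fecal pellets counted at 2, 3, 7 days; F-tests and Student tests.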

[3] = 2 ml formulated per kg seed, 2 days after sowing
[4] = 2 ml formulated per kg seed, 3 days after sowing
[5] = 2 ml formulated per kg seed, 7 days after sowing
[6] = 2 ml formulated per kg seed, 10 days after sowing
[7] = 2 ml formulated per kg seed, 14 days after sowing
[8] = 4 ml formulated per kg seed, 2 days after sowing
[9] = 4 ml formulated per kg seed, 3 days after sowing
[10] = 4 ml formulated per kg seed, 7 days after sowing
[11] = 4 ml formulated per kg seed, 10 days after sowing
[12] = 4 ml formulated per kg seed, 14 days after sowing
[13] = 8 ml formulated per kg seed, 2 days after sowing
[14] = 8 ml formulated per kg seed, 3 days after sowing
[15] = 8 ml formulated per kg seed, 7 days after sowing
[16] = 8 ml formulated per kg seed, 10 days after sowing
[17] = 8 ml formulated per kg seed, 14 days after sowing
[18] = 12 ml formulated per kg seed, 2 days after sowing
[19] = 12 ml formulated per kg seed, 3 days after sowing
[20] = 12 ml formulated per kg seed, 7 days after sowing
[21] = 12 ml formulated per kg seed, 10 days after sowing
[22] = 12 ml formulated per kg seed, 14 days after sowing
[23] = Example 2, 8 ml formulated per kg seed, 2 days after sowing
[24] = Example 2, 8 ml formulated per kg seed, 3 days after sowing
[25] = Example 2, 8 ml formulated per kg seed, 7 days after sowing
[26] = Example 2, 12 ml formulated per kg seed, 2 days after sowing
[27] = Example 2, 12 ml formulated per kg seed, 3 days after sowing
[28] = Example 2, 12 ml formulated per kg seed, 7 days after sowing
[29] = Example 2, after 2, 3 and 7 days

## O=[N+]([O-])NC1=NCCN1Cc1ccc(Cl)nc1 [imidacloprid]
[1]; 2 ml formulated per kg seed
  number of utilizable plants after 14 days: 2.5
  percentage of damaged seeds after 14 days: 86%
[1]; [3]
  Mean number of damaged seeds per pot: 2.8
  Mean number of dead slugs per pot: 0
[1]; [4]
  Mean number fecal pellets per pot: 33
  Mean number of damaged seeds per pot: 10.3
  Mean number of dead slugs per pot: 0
  Mean number of plants present per pot: 3.8
[1]; [5]
  Mean number fecal pellets per pot: 118
  Mean number of damaged seeds per pot: 33.0
  Mean number of dead slugs per pot: 0
  Mean number of plants present per pot: 2.8
[1]; [6]
  Mean number fecal pellets per pot: 109
  Mean number of damaged seeds per pot: 33.5
  Mean number of dead slugs per pot: 0.3
  Mean number of plants present per pot: 4.5
[1]; [7]
  Mean number fecal pellets per pot: 116
  Mean number of damaged seeds per pot: 34.3
  Mean number of dead slugs per pot: 0.5
  Mean number of plants present per pot: 3.3
[1]; 4 ml formulated per kg seed
  number of utilizable plants after 14 days: 0.8
  percentage of damaged seeds after 14 days: 81%
[1]; [8]
  Mean number of damaged seeds per pot: 1.0
  Mean number of dead slugs per pot: 0
[1]; [9]
  Mean number fecal pellets per pot: 21
  Mean number of damaged seeds per pot: 7.3
  Mean number of dead slugs per pot: 0.3
  Mean number of plants present per pot: 2.3
[1]; [10]
  Mean number fecal pellets per pot: 108
  Mean number of damaged seeds per pot: 32.8
  Mean number of dead slugs per pot: 0.3
  Mean number of plants present per pot: 1.3
[1]; [11]
  Mean number fecal pellets per pot: 118
  Mean number of damaged seeds per pot: 31.5
  Mean number of dead slugs per pot: 0.3
  Mean number of plants present per pot: 4.0
[1]; [12]
  Mean number fecal pellets per pot: 126
  Mean number of damaged seeds per pot: 32.3
  Mean number of dead slugs per pot: 0.3
  Mean number of plants present per pot: 3.5
[1]; 8 ml formulated per kg seed
  number of utilizable plants after 14 days: 7.3
  percentage of damaged seeds after 14 days: 59%
[1]; [13]
  Mean number of damaged seeds per pot: 1.3
  Mean number of dead slugs per pot: 0
[1]; [14]
  Mean number fecal pellets per pot: 11
  Mean number of damaged seeds per pot: 4.5
  Mean number of dead slugs per pot: 0
  Mean number of plants present per pot: 13.8
[1]; [15]
  Mean number fecal pellets per pot: 48
  Mean number of damaged seeds per pot: 23.8
  Mean number of dead slugs per pot: 0
  Mean number of plants present per pot: 9.0
[1]; [16]
  Mean number fecal pellets per pot: 65
  Mean number of damaged seeds per pot: 23.5
  Mean number of dead slugs per pot: 0.3
  Mean number of plants present per pot: 9.5
[1]; [17]
  Mean number fecal pellets per pot: 75
  Mean number of damaged seeds per pot: 23.8
  Mean number of dead slugs per pot: 0.5
  Mean number of plants present per pot: 10.5
[1]; 12 ml formulated per kg seed
  number of utilizable plants after 14 days: 14.3
  percentage of damaged seeds after 14 days: 22%
[1]; [18]
  Mean number of damaged seeds per pot: 0.0
  Mean number of dead slugs per pot: 0
[1]; [19]
  Mean number fecal pellets per pot: 9
  Mean number of damaged seeds per pot: 4.3
  Mean number of dead slugs per pot: 1.5
  Mean number of plants present per pot: 11.8
[1]; [20]
  Mean number fecal pellets per pot: 26
  Mean number of damaged seeds per pot: 11.5
  Mean number of dead slugs per pot: 1.5
  Mean number of plants present per pot: 16.3
[1]; [21]
  Mean number fecal pellets per pot: 35
  Mean number of damaged seeds per pot: 7.8
  Mean number of dead slugs per pot: 1.5
  Mean number of plants present per pot: 19.0
[1]; [22]
  Mean number fecal pellets per pot: 38
  Mean number of damaged seeds per pot: 8.8
  Mean number of dead slugs per pot: 1.5
  Mean number of plants present per pot: 20
[1]; Example 1, 2 ml/kg
  damaged seeds relative to untreated seed: no controlling effect
[1]; Example 1, 4 ml/kg
  damaged seeds relative to untreated seed: controlling effect only after 2 and 3 days
[1]; Example 1, 8 ml/kg, after 3, 7 and 14 days
  damaged seeds relative to untreated seed: significant controlling effect
[1]; Example 1, 12 ml per kg of seed, at each observation
  damaged seeds relative to the untreated pots: significantly less damaged seeds
[1]; Example 1, 12 ml per kg of seed, each observation
  fecal pellets relative to the untreated seed: significantly less fecal pellets
[1]; Example 1, 12 ml/kg, 3 and 7 days after the start
  dead slugs relative to the untreated seed: significantly more dead slugs
[1]; Example 1, 12 ml/kg, at each observation
  plants present relative to the untreated seed: significantly more plants present
[1]; Example 1, dosage of 12 ml per kg of seed
  slug controlling effect (conclusion): good slug controlling agent
[2]; Example 2
  result of seed treatment against slugs (conclusion): acceptable result
[2]; Example 2, 8 ml formulated per kg seed
  percentage of damaged seeds after 7 days: 23%
[2]; [23]
  Mean number of damaged seeds per pot: 4.8
  Mean number of dead slugs per pot: 0
[2]; [24]
  Mean number of damaged seeds per pot: 9.0
  Mean number of dead slugs per pot: 0
[2]; [25]
  Mean number of damaged seeds per pot: 9.0
  Mean number of dead slugs per pot: 1.0
[2]; Example 2, 12 ml formulated per kg seed
  percentage of damaged seeds after 7 days: 12%
[2]; [26]
  Mean number of damaged seeds per pot: 1.8
  Mean number of dead slugs per pot: 0
[2]; [27]
  Mean number of damaged seeds per pot: 3.8
  Mean number of dead slugs per pot: 0
[2]; [28]
  Mean number of damaged seeds per pot: 4.8
  Mean number of dead slugs per pot: 0.8
[2]; [29]
  number of fecal pellets per pot relative to the untreated control: significant reduction in the number of fecal pellets
  plants present relative to the untreated seed: significantly more plants present
[2]; Example 2, two days after the start
  number of damaged seeds relative to the untreated seed: significant reduction in the number of damaged seeds
[2]; dosage 8 ml, 2 days
  Mean number of fecal pellets per pot: 6
  Mean number of plants present per pot: 7.8
[2]; dosage 8 ml, 3 days
  Mean number of fecal pellets per pot: 17
  Mean number of plants present per pot: 12.3
[2]; dosage 8 ml, 7 days
  Mean number of fecal pellets per pot: 29
  Mean number of plants present per pot: 18.3
  number of utilizable plants after 7 days: 13.5
[2]; dosage 12 ml, 2 days
  Mean number of fecal pellets per pot: 3
  Mean number of plants present per pot: 16.0
[2]; dosage 12 ml, 3 days
  Mean number of fecal pellets per pot: 17
  Mean number of plants present per pot: 24.5
[2]; dosage 12 ml, 7 days
  Mean number of fecal pellets per pot: 28
  Mean number of plants present per pot: 28.3
  number of utilizable plants after 7 days: 22.8
